From a compilation of properties of binary mixtures (doi:10.1021/acs.jpcb.8b11892)

Test: xn = mol fraction of the nth substance listed
Details: 101 kPa

O + CCOS(=O)(=O)[O-].CC[n+]1ccn(C)c1
x2 = 0
Details	viscosity [mPa·s]
293.15 K	0.97
298.15 K	0.87
303.15 K	0.78
313.15 K	0.64

CCOS(=O)(=O)[O-].CC[n+]1ccn(C)c1 + O
Details	electrical conductivity, 298.15 K [S/m]	electrical conductivity, 313.15 K [S/m]	viscosity, 293.15 K [mPa·s]	viscosity, 298.15 K [mPa·s]	viscosity, 303.15 K [mPa·s]	viscosity, 313.15 K [mPa·s]
x1 = 0.001	0.29	0.39	0.99	–	0.81	0.66
x1 = 0.003	–	–	1.04	–	0.84	–
x1 = 0.004	1.1	1.5	1.07	0.97	0.87	0.71
x1 = 0.006	1.5	2	1.14	1.02	0.91	0.74
x1 = 0.008	1.9	–	1.2	1.07	0.96	–
x1 = 0.013	2.5	–	1.34	1.19	1.06	–
x1 = 0.019	2.9	–	1.54	1.36	1.21	–
x1 = 0.032	3.7	5.1	1.93	1.7	1.5	1.2
x1 = 0.047	–	5.7	2.48	–	–	1.51
x1 = 0.071	4.1	5.8	3.42	2.97	2.6	2.03
x1 = 0.103	3.7	5.4	4.8	4.14	3.59	2.77
x1 = 0.151	3.2	–	–	6.06	5.22	–
x1 = 0.229	2.5	3.7	11	9.33	7.98	6
x1 = 0.303	2	3	15.2	12.9	10.9	8.15
x1 = 0.473	1.2	1.9	27.4	22.9	19.3	14.1
x1 = 0.588	0.92	–	39.5	32.7	27.2	–
x1 = 0.642	0.81	–	46.7	38.3	31.7	–
x1 = 1	0.4	0.73	122	95.5	75.4	49.4

CC[n+]1ccn(C)c1.O=S(=O)([O-])C(F)(F)F + O
Details	electrical conductivity, 298.15 K [S/m]	electrical conductivity, 313.15 K [S/m]	viscosity, 293.15 K [mPa·s]	viscosity, 298.15 K [mPa·s]	viscosity, 303.15 K [mPa·s]	viscosity, 313.15 K [mPa·s]
x1 = 0.001	0.28	0.37	1.01	0.9	0.81	0.67
x1 = 0.002	0.66	0.93	1.03	0.92	0.83	0.69
x1 = 0.004	1	–	–	0.96	0.86	–
x1 = 0.005	–	1.8	1.11	–	0.88	0.72
x1 = 0.008	1.7	2.3	1.16	1.03	–	0.75
x1 = 0.012	–	3.1	1.26	–	0.99	0.82
x1 = 0.017	–	–	1.38	–	–	–
x1 = 0.029	3.6	–	–	1.47	1.31	–
x1 = 0.041	–	5.6	–	–	1.57	1.26
x1 = 0.064	–	6.4	2.48	–	1.92	1.52
x1 = 0.094	4.8	6.6	3.21	2.81	2.47	1.96
x1 = 0.137	–	–	4.24	–	–	–
x1 = 0.216	3.9	5.7	6.17	5.37	4.71	3.69
x1 = 0.391	2.8	4.1	10.9	9.43	–	6.41
x1 = 0.463	2.4	3.4	–	11.8	10.3	7.95
x1 = 0.512	2.1	3.1	15.5	13.4	11.7	9.02
x1 = 0.73	1.5	2.2	27.3	23.3	20	15
x1 = 1	0.91	1.4	52.4	43.8	36.7	26.6
